Reference: patent publication US20040138200A1, “Pharmaceutical compositions for treatment of Parkinson's disease” (priority 2002, published 2004)
Where a name gives a salt, the structure may show the parent alone.

Experiment: rotating disk dissolution test
Assay type: physicochemical
Settings: 300 rpm; for Rotating Disk Dissolution Rate (RDDR): crystalline salt, 20 mg pellet, about 500 ml dissolution medium at 25° C., slope normalized to initial exposed surface area
Text: In a preferred aspect, the salts of the present invention are crystalline salts. A crystalline salt of the invention dissolves slower than the crystalline maleate salt of the same compound under standard conditions of temperature, pressure, and fluid flow. Preferably, the dissolution rate of a crystalline salt of the invention, when measured by a rotating disk dissolution test, is less than 50% of that of a crystalline maleate salt of the same compound. More preferably, the dissolution rate is less than 25% of that of a crystalline maleate salt of the same compound. More preferably, the dissolution rate is less than 10% of that of a crystalline maleate salt of the same compound. For example, under the standard conditions in a rotating disc dissolution test, the maleate salt crystals dissolved at a rotating disc dissolution rate (RDDR) of 0.44 mmole sec^−1 cm^−2, whereas the xinafoate salt crystals dissolved at a rate of 0.03 mmole sec^−1 cm^−2 (see FIG. 1). In preferred embodiments, the salt of the invention the salt has a dissolution rate into aqueous solution of about 0.40 mmole sec^−1 cm^−2 or less. In more preferred embodiments, the salt of the invention the salt has a dissolution rate into aqueous solution of about 0.20 mmole sec^−1 cm^−2 or less. In more preferred embodiments, the salt of the invention the salt has a dissolution rate into aqueous solution of about 0.05 mmole sec^−1 cm^−2 or less.
Dissolution rates of sumanirole from xinafoate and maleate crystalline salts were determined using a rotating disk apparatus. In this apparatus, a die containing a pellet comprising a substance of interest is attached to an arm connected to a small motor. The die is submerged in about 500 ml of a dissolution medium at 25° C., and rotated at 300 rpm. The concentration of a compound released into solution is measured in a series of time points using an in situ UV/vis absorbance dip probe linked to a digital computer. For testing the dissolution rates of sumanirole xinafoate and sumanirole maleate crystalline salts, 20 mg of the xinafoate crystalline salt and 20 mg of the maleate crystalline salt were each pressed into pellets of uniform shape at 1000 pounds (3700 psi) for 1 minute. Each pellet was then subjected to dissolution in a rotating disc dissolution apparatus. Measurements of the amount of sumanirole dissolved into the medium, recorded as milligrams of free base equivalent of sumanirole, were plotted against time (FIG. 1). The slope of each curve, normalized to the initial exposed surface area of each disk, was used to calculate a Rotating Disk Dissolution Rate (RDDR) for each salt.

Structure (SMILES) | Rotating Disk Dissolution Rate (RDDR) [mmole sec^−1 cm^−2] | Rotating Disk Dissolution Rate (RDDR) (listed as maleate salt) [mmole sec^−1 cm^−2] | Rotating Disk Dissolution Rate (RDDR) (listed as xinafoate salt) [mmole sec^−1 cm^−2] | dissolution rate relative to the rate of the sumanirole maleate crystalline salt (rotating disk dissolution, 25° C.)
CN[C@@H]1Cc2cccc3[nH]c(=O)n(c23)C1 [sumanirole maleate, (R)-5,6-dihydro-5-(methylamino)-4H-imidazo[4,5,1-ij]quinolin-2(1H)-one, reference compound] | 0.44 | 0.44 | – | –
CN[C@@H]1Cc2cccc3[nH]c(=O)n(c23)C1 [sumanirole xinafoate, (R)-5,6-dihydro-5-(methylamino)-4H-imidazo[4,5,1-ij]quinolin-2(1H)-one] | 0.030 | – | 0.03 | less than 10%
